Test results reported in EP2390266A1, “3-D Conformation of GLIC and allosteric modulation thereof” (priority 2010, dated 2011).
pIC50: −log10 of the molar value.

What was measured:
GLIC = biological target: T1, GLIC (Gloeobacter violaceus, UniProt Q7NDN8); settings: cited from earlier work; for inhibition of GLIC: at clinical concentration; for nH: Hill number of the inhibition curve; for nH / currents inhibited by up to: EC20 concentration (pH 4.7-5.3) of protons; for pIC50: currents elicited by an EC20 concentration (pH 4.7-5.3) of protons; for currents inhibited by up to: maximal inhibition
T1 sequence (Q7NDN8 44-359): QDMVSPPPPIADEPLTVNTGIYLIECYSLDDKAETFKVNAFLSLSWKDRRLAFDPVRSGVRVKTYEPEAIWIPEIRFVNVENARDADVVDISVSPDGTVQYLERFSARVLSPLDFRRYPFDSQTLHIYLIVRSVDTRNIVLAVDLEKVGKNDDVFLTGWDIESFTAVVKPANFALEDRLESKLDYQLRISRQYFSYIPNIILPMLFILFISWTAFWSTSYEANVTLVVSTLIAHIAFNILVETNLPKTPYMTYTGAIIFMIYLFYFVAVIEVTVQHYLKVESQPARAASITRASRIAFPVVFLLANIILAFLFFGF

I202Y mutated GLIC = assay: Two-electrode voltage clamp on oocytes, mutant GLIC; assay type: cell-based, Gloebacter violaceus
Description: (§1) • Figure 3A. […] Xenopus laevis oocytes, holding potential -60 to -40 mV.
(§2) For desflurane inhibition (figures 3C-3F), full dose-inhibition curves were measured at pH20.

I202A mutated GLIC = assay: as above; assay type: cell-based, Gloebacter violaceus
Description: as §1, §2

T255A mutated GLIC = assay: as above; assay type: cell-based, Gloebacter violaceus
Description: as §1, §2

V242M mutated GLIC = assay: as above; assay type: cell-based, Gloebacter violaceus
Description: as §1, §2

I202W mutated GLIC = assay: as above; assay type: cell-based, Gloebacter violaceus
Description: as §1, §2

I258A mutated GLIC = settings: activation at pH20 (pH 5.5 to 5.8)
Description: (§3) We monitored the inhibitory action of both anesthetics by two-electrode voltage clamp on oocytes expressing the GLIC channel. A typical experiment consists at activating the GLIC channel by an EC20 concentration of protons for 5 min, a period during which anesthetics are applied for 1min, 1 min after the onset of proton application.
(§4) Key residues contacting or neighboring propofol and desflurane in the 3D structure were mutated to alanine, or to more bulky residues in order to decrease the size of the binding pocket (mutants I202 A,Y,W, V242 A,M,W, T255A and I258A,M). […] Mutants were first characterized by their trace currents and proton dose-response curve (figures 3C-3F).

I258M mutated GLIC = settings: activation at pH20 (pH 5.5 to 5.8)
Description: as §3, §4

V242A mutated GLIC = system: V242A mutated GLIC
Description: as §3, §4

wild-type GLIC = wild-type GLIC (Gloeobacter violaceus, UniProt Q7NDN8); assay: cell-based
Description: as §3

[1] = activation at pH20 (pH 6.5-6.8), 10 µM propofol (Fig. 3C)
[2] = activation at pH20 (pH 5.5 to 5.8), 10 µM propofol (Fig. 3C)
[3] = increased sensitivity for propofol

SMILES: CC(O)CC(=O)O (stereo not shown) [3-hydroxybutyric acid]
- inhibition of GLIC (GLIC): robustly inhibited

SMILES: FC(F)OC(F)C(F)(F)F (stereo not shown) [desflurane, 2-(difluoromethoxy)-1,1,1,2-tetrafluoro-ethane]
- desflurane inhibition, full dose-inhibition curve compared with WT (I202Y mutated GLIC; at pH20): did not alter significantly
- desflurane inhibition, full dose-inhibition curve compared with WT (I202A mutated GLIC; at pH20): did not alter significantly
- desflurane inhibition, full dose-inhibition curve compared with WT (T255A mutated GLIC; at pH20, decreased sensitivity toward desflurane): dramatic shift of the curve to the right
- desflurane inhibition, full dose-inhibition curve compared with WT (V242M mutated GLIC; at pH20): did not alter significantly
- desflurane inhibition, full dose-inhibition curve compared with WT (I202W mutated GLIC; at pH20): did not alter significantly
- nH (GLIC): 0.24
- inhibition of GLIC (GLIC): robustly inhibited
- pIC50 (GLIC): 5.00
- currents inhibited by up to (GLIC): up to 90%

SMILES: CCOC(=O)c1cncn1[C@H](C)c1ccccc1 [etomidate, ethyl 3-[(1R)-1-phenylethyl]imidazole-4-carboxylate]
- inhibition of GLIC (GLIC): robustly inhibited

SMILES: CC(C)c1cccc(C(C)C)c1O [propofol, 2,6-diisopropylphenol]
- propofol inhibition compared with WT (I202Y mutated GLIC; [1]): not significantly different from WT
- propofol inhibition compared with WT (I202A mutated GLIC; [2]): not significantly different from WT
- propofol inhibition compared with WT (T255A mutated GLIC; [1]): more inhibited
- propofol dose-inhibition curve compared with wt (T255A mutated GLIC; [3]): shift of the dose-inhibition curve toward the left
- propofol inhibition compared with WT (V242M mutated GLIC; [2]): more inhibited
- propofol dose-inhibition curve compared with wt (V242M mutated GLIC; [3]): shift of the dose-inhibition curve toward the left
- propofol inhibition compared with WT (I202W mutated GLIC; [2]): not significantly different from WT
- nH (GLIC): 0.39
- inhibition of GLIC (GLIC): robustly inhibited
- pIC50 (GLIC): 6.22
- currents inhibited by up to (GLIC): up to 90%
- propofol inhibition compared with WT (I258A mutated GLIC): not significantly different from WT
- propofol inhibition compared with WT (I258M mutated GLIC): not significantly different from WT
- propofol inhibition compared with WT (V242A mutated GLIC; activation at pH20 (pH 5.5 to 5.8)): more inhibited
- propofol dose-inhibition curve compared with wt (V242A mutated GLIC; [3]): shift of the dose-inhibition curve toward the left
- inhibition of GLIC (wild-type GLIC; higher proton concentration (at the EC50)): no longer observed
- inhibition at 10 µM (wild-type GLIC; read-out: inhibition of GLIC): 28%
